Our source for the GI50 and TGI values is PubChem BioAssay (NCI).

Some test systems named below: M14 melanoma; OVCAR-5 ovarian; CCRF-CEM leukemia; EKVX NSCLC; RPMI-8226 leukemia; HS 578T breast; UACC-257 melanoma; SK-OV-3 ovarian; KM12 colon; SK-MEL-5 melanoma.
Holding throughout (assay): NCI tumour cell line growth inhibition, 48 h

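How tested: cells in 96-well plates exposed to compound for 48 hours at five concentrations. GI50 is the concentration that inhibits growth by half. TGI: total growth inhibition.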 Some results are limits rather than exact numbers.

As for `N#CN1CC[C@H](C(=O)Nc2cc3cc(C(N)=O)ccc3cn2)C1`, the GI50 in the assay on M14 melanoma is 0.0694 µM; with OVCAR-5 ovarian, 0.51 µM; in the assay with CCRF-CEM leukemia, 0.029 µM; in the assay on EKVX NSCLC, 0.258 µM; with RPMI-8226 leukemia, 0.272 µM; with HS 578T breast it was 0.0534 µM. Moreover, the GI50 in the assay with UACC-257 melanoma is 0.22 µM; in the assay on SK-OV-3 ovarian, 0.37 µM; in the assay with KM12 colon, 0.0566 µM; with SK-MEL-5 melanoma, 0.105 µM. The TGI with M14 melanoma is 1.13 µM; with OVCAR-5 ovarian, over 68.4 µM; with CCRF-CEM leukemia it was over 100 µM; in the assay with EKVX NSCLC, 6.87 µM; in the assay on RPMI-8226 leukemia, 1.46 µM; in the assay on HS 578T breast it was 3.52 µM. Further, the TGI with UACC-257 melanoma was 0.904 µM; with SK-OV-3 ovarian it was over 100 µM; in the assay on KM12 colon, 12 µM; with SK-MEL-5 melanoma it was 2.21 µM.
For the compound `Cc1cc(Cl)ccc1Nc1nc(C(F)(F)F)ccc1C(=O)N/N=C/c1ccccc1Cl`, the GI50 was 0.874 µM in the assay on M14 melanoma; 1.65 µM with OVCAR-5 ovarian; 0.341 µM in the assay with CCRF-CEM leukemia; 0.894 µM in the assay on EKVX NSCLC; 1.26 µM in the assay on HS 578T breast; 2.24 µM in the assay with UACC-257 melanoma. In addition, the GI50 with SK-OV-3 ovarian was 0.874 µM; in the assay on KM12 colon, 0.902 µM; with SK-MEL-5 melanoma, 1.39 µM. Moreover, the TGI worked out at 7.83 µM with M14 melanoma; 11.1 µM in the assay with OVCAR-5 ovarian; 4.78 µM in the assay on CCRF-CEM leukemia; 7.23 µM with EKVX NSCLC; 5.67 µM in the assay with HS 578T breast; 10.2 µM with UACC-257 melanoma. For the same compound, the TGI with SK-OV-3 ovarian amounted to 4.95 µM; with KM12 colon, 8.14 µM; in the assay on SK-MEL-5 melanoma, 3.51 µM.
With `C#COc1cccc(Nc2ncnc3cc(NC(=O)[C@H](C)Cl)ccc23)c1`, the GI50 is 2.27 µM in the assay on M14 melanoma; 3.84 µM in the assay with OVCAR-5 ovarian; 2.41 µM with CCRF-CEM leukemia; 17.4 µM in the assay with EKVX NSCLC; 3.52 µM in the assay on RPMI-8226 leukemia; 2.51 µM in the assay with HS 578T breast. The GI50 in the assay with UACC-257 melanoma was over 62.5 µM; in the assay on SK-OV-3 ovarian, 13 µM; with KM12 colon, 2.44 µM; with SK-MEL-5 melanoma it was 1.39 µM. The TGI in the assay with M14 melanoma, in the assay on OVCAR-5 ovarian, in the assay on CCRF-CEM leukemia, in the assay with EKVX NSCLC, with RPMI-8226 leukemia and in the assay with HS 578T breast was over 62.5 µM in each case. The TGI in the assay on UACC-257 melanoma was over 62.5 µM; in the assay on SK-OV-3 ovarian, over 62.5 µM; in the assay on KM12 colon it was over 62.5 µM; in the assay on SK-MEL-5 melanoma, 3.54 µM.
As to `C=C(C)C(=O)O[C@@H]1C/C(C)=C\[C@H](OC(C)=O)C[C@](C)(O)/C=C2/OC(=O)C(COC(C)=O)=C21`, the TGI amounted to 4.55 µM in the assay on OVCAR-5 ovarian; 2.07 µM with EKVX NSCLC; 1.73 µM in the assay with RPMI-8226 leukemia; 47 µM with HS 578T breast; 3.62 µM in the assay with UACC-257 melanoma; 18.7 µM in the assay with SK-OV-3 ovarian. The TGI came out at 23.5 µM in the assay with KM12 colon and 8.4 µM with SK-MEL-5 melanoma.
Consider `O=C(CC(=O)c1cccc(Cl)c1)c1cccc(Cl)c1`, for which the GI50 in the assay on M14 melanoma was 2.35 µM; in the assay with OVCAR-5 ovarian it was 4.3 µM; with CCRF-CEM leukemia, 0.874 µM; in the assay with EKVX NSCLC it was 2.16 µM; with RPMI-8226 leukemia, 1.45 µM; in the assay with HS 578T breast, 3.88 µM. Besides, the GI50 with UACC-257 melanoma was 5.99 µM; in the assay on SK-OV-3 ovarian, 3.85 µM; with KM12 colon it was 3.02 µM; in the assay with SK-MEL-5 melanoma it was 3.87 µM. Further, the TGI in the assay with M14 melanoma, in the assay with OVCAR-5 ovarian, in the assay with CCRF-CEM leukemia, with EKVX NSCLC, with RPMI-8226 leukemia and with HS 578T breast was over 100 µM in each case. The TGI with UACC-257 melanoma, in the assay on SK-OV-3 ovarian, with KM12 colon and in the assay on SK-MEL-5 melanoma was over 100 µM throughout.
In the case of `O=S(=O)(Nc1ccc(F)c(Cl)c1)c1ccc(-c2cnc(C3CC3)o2)cc1`, the GI50 with M14 melanoma was 0.264 µM; in the assay with OVCAR-5 ovarian, 0.798 µM; in the assay with CCRF-CEM leukemia, 0.318 µM; in the assay with EKVX NSCLC, 0.609 µM; in the assay on RPMI-8226 leukemia it was 0.388 µM; with HS 578T breast, 0.28 µM. Moreover, the GI50 in the assay with UACC-257 melanoma was 1.12 µM; in the assay with SK-OV-3 ovarian, 0.728 µM; in the assay on KM12 colon, 0.151 µM; in the assay on SK-MEL-5 melanoma it was 0.316 µM. For the same compound, the TGI was 7.13 µM in the assay on M14 melanoma; 13.4 µM in the assay with OVCAR-5 ovarian; 28.9 µM in the assay on CCRF-CEM leukemia; 11.9 µM in the assay on EKVX NSCLC; over 31.9 µM in the assay with RPMI-8226 leukemia; 4.53 µM with HS 578T breast. Further, the TGI in the assay with UACC-257 melanoma turned out to be 10.1 µM; in the assay on SK-OV-3 ovarian, 14.4 µM; in the assay on KM12 colon it was 9.3 µM; in the assay with SK-MEL-5 melanoma it was 1.67 µM.
Regarding `COc1ccc(C2C=C(c3ccc(Cl)cc3)N=C3SC=C(C)N32)c(Br)c1` (centres undefined), the GI50 in the assay with M14 melanoma was 3.99 µM; in the assay with OVCAR-5 ovarian, 3.12 µM; with CCRF-CEM leukemia, 2.37 µM; in the assay with RPMI-8226 leukemia, 2.18 µM; with HS 578T breast it was 2.19 µM; in the assay with UACC-257 melanoma, 4.42 µM. Besides, the results for the GI50 in the assay on SK-OV-3 ovarian, in the assay with KM12 colon and in the assay with SK-MEL-5 melanoma were 3.57 µM, 2.26 µM and 2.8 µM, respectively. The TGI with M14 melanoma stood at 15.7 µM; in the assay with OVCAR-5 ovarian it was 11.2 µM; with CCRF-CEM leukemia, 11.8 µM; in the assay on RPMI-8226 leukemia, 9.67 µM; in the assay with HS 578T breast it was 7.5 µM; with UACC-257 melanoma, 18.8 µM. In addition, the values for the TGI with SK-OV-3 ovarian, in the assay on KM12 colon and with SK-MEL-5 melanoma were 12.6 µM, 5.77 µM and 11.2 µM, respectively.
As for `COc1ccc(/C=C\c2cc(OC)c(OC)c(OC)c2)cc1OCC(=O)Nc1ccc2nc(C)sc2c1`, the GI50 in the assay on M14 melanoma is 3.38 µM; in the assay with OVCAR-5 ovarian, 6.69 µM; with CCRF-CEM leukemia, 3.41 µM; with EKVX NSCLC, 4.05 µM; in the assay with RPMI-8226 leukemia, 1.98 µM; in the assay on HS 578T breast, 4.32 µM. Moreover, the GI50 in the assay with UACC-257 melanoma is 1.73 µM; with SK-OV-3 ovarian, 5.27 µM; in the assay on KM12 colon it was 3.79 µM; with SK-MEL-5 melanoma it was 1.97 µM. Moreover, the TGI was 10.4 µM with M14 melanoma; over 100 µM in the assay with OVCAR-5 ovarian; over 100 µM with CCRF-CEM leukemia; over 100 µM in the assay on EKVX NSCLC; 4.69 µM in the assay with RPMI-8226 leukemia; over 100 µM in the assay on HS 578T breast. Moreover, the TGI in the assay on UACC-257 melanoma was 3.4 µM; in the assay on SK-OV-3 ovarian it was 50.4 µM; in the assay with KM12 colon, 14.8 µM; with SK-MEL-5 melanoma, 5.14 µM.
